“Also recorded” adds a separate entry of the source.
Tests used:
Type in all cases: cell-based
K562 cells = test: Leukemia cell proliferation, K562; conditions: 72 hrs
Method: (§1) 2,000 cells from indicated NSLC cell lines were seeded into each well of 96-well plates. Cell viability was measured 3 days post-treatment using MTT assays following manufacturer's instruction. For cell viability assays with inhibitor treatment, 2,000 cells from indicated NSLC and HEK293 cell lines were seeded in 96-well plate. Inhibitor was added the next day at indicated concentration and cell viability was measured after 3-day treatment. For cell proliferation assays in THP1, K562 and HL60 cell lines, 1×10^6 cells from each indicated cell line were seeded in 12.5 cm2 cell culture flask and cells were counted by hemocytometer under microscope at indicated time to monitor cell proliferation. To test inhibitor effects on THP1, K562 and HL60 cell growth, 2×10^5 cells were seeded in 12.5 cm2 cell culture flask. Inhibitor was added the next day at indicated concentrations and cell number was counted after 3 days treatment. Three independent experiments were performed to generate error bars.

[1] = system: GβL binding with mTORC2 components (Sin1, Rictor, mTOR); test: GβL binding with mTORC2 components (HA-IP, HEK293 cells); conditions: indicated doses of 7Bi, 16 hrs
Method: (§2) Cells were harvested and lysed in EBC buffer (50 mM Tris pH 7.5, 120 mM NaCl, 0.5% NP-40) supplemented with protease inhibitor cocktail (EDTA-free, mini-tablet) (Bimake) and phosphatase inhibitor cocktail (Bimake) by rotating in the cold room for 10 min followed by high-speed centrifugation at 4° C. The protein concentrations in supernatants of whole cell lysates were measured by NanoDrop OneC using the Bio-Rad Bradford protein assay reagent. Equal amounts of whole cell lysates were resolved on SDS-PAGE and immunoblotted with indicated antibodies. For immunoprecipitation analysis, 1 mg of total cell lysate was incubated with the indicated beads for 3-4 hr at 4° C. The recovered immuno-complexes were washed thoroughly three times with NETN buffer (20 mM Tris, pH 8.0, 100 mM NaCl, 1 mM EDTA and 0.5% NP-40) before being resuspended in SDS sample buffer and resolved on SDS-PAGE and immunoblotted with indicated antibodies.

[2] = system: OTUD7B-induced GβL deubiquitination; test: In-cell GβL ubiquitination assay (Ni-NTA pulldown, HEK293 cells); conditions: HEK293 cells transfected with DNA constructs, compound for 16 hrs; listed as #19
Method: FIGS. 2A-2L show results of validation for OTUD7B small molecule inhibitors in cells. (A-D) IB analyses of WCL from indicated NSCLC cells treated with […] of indicated compounds for 16 hrs. (E, F) IB analyses of WCL from either A549 (E) or HEK293 (F) cells treated with indicated doses of compound #19 for 16 hrs. (G) IB analyses of Ni-NTA pulldowns and WCL from HEK293 cells transfected with indicated DNA constructs. Where indicated, cells were treated with […] of indicated compounds for 16 hrs before cell collection. (H-L) Quantifications of cell viability by MTT assays in A549 cells treated with indicated doses of indicated compounds for 72 hrs. Error bars were calculated as mean+/−SD, n=3. *p<0.05 (one-way ANOVA test).

A549 cells = test: Colony formation / growth of A549 cells; conditions: treated once for 10 days
Method: 500 cells from OTUD7B depleted A549 cells were seeded into each well of 6-well plates and cultured in the 37° C. incubator with 5% CO2 for 10-15 days until formation of visible colonies. Triplicates were performed. To test the effect of a given inhibitor on colony formation ability, 800 cells from A549, H520 and H1299 cell lines were seeded into each well of 6-well plates, respectively. Each inhibitor was added at indicated concentration the next day. Colonies were counted after 10 days of treatment. The colony staining method was as described. […] Colony numbers were counted manually. […]
as §1, with “For cell viability assays with inhibitor treatment, 2,000 cells from indicated NSLC and HEK293 cell lines were seeded in 96-well plate.” left out, “To test inhibitor effects on THP1, K562 and HL60 cell growth, 2×10^5 cells were seeded in 12.5 cm2 cell culture flask.” left out, “Three independent experiments were performed to generate error bars.” left out

OTUD7B binding to GβL = target: T1, OTUD7B binding to GβL (Homo sapiens, UniProt Q6GQQ9); test: OTUD7B binding to GβL
T1 sequence (Q6GQQ9 1-843): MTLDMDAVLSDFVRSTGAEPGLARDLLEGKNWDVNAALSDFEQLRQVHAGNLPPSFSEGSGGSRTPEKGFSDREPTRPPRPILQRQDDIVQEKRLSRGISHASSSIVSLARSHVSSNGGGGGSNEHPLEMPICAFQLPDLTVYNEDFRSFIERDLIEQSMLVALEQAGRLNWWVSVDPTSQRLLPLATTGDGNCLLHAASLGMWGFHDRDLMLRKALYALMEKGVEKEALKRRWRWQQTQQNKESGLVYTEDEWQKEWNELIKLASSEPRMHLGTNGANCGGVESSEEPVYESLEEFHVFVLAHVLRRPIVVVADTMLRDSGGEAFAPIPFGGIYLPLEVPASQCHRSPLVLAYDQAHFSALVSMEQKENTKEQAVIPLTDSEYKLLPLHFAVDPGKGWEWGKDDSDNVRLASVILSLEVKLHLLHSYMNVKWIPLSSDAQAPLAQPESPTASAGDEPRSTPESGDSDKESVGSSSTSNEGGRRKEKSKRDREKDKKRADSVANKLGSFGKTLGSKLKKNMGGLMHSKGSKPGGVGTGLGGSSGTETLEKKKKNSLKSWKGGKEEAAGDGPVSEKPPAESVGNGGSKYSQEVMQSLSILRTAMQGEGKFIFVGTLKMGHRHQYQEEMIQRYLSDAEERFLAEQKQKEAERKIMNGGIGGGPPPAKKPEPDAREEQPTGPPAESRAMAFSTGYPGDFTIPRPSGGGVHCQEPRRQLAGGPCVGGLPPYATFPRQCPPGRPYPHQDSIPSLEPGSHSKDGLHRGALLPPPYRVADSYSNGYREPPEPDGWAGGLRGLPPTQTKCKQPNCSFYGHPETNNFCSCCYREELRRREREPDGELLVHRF
Method: as §2

Cc1cc(NC(=O)c2cnn(C)c2C(=O)Nc2cc(C)nn2C2CCCC2)n(C2CCCC2)n1 [7Bi]
cell proliferation (K562 cells): reduced proliferation | GβL binding with mTORC2 components (Sin1, Rictor, mTOR) [1]: attenuated GβL binding with mTORC2 components | blocking OTUD7B-induced GβL deubiquitination in cells [2]: partially blocked OTUD7B-induced GβL deubiquitination; also recorded: able to block OTUD7B-mediated GβL deubiquitination in cells | cell growth (A549 cells): reduced growth | OTUD7B binding to GβL (OTUD7B binding to GβL): nor significantly affected OTUD7B binding to GβL
